Measurements: patent publication US8952034B2, “Fused heterocyclic compounds as ion channel modulators” (Gilead Sciences, Inc., priority 2009, dated 2015)

The molecules below were run against wild-type human cardiac sodium channel, hNav1.5 (Homo sapiens, UniProt Q14524) (assay: Late INa screening assay (automated whole cell patch clamp, PatchXpress)). Conditions: compound at 1 μM; HEK293 cells expressing hNav1.5; late INa generated with 10 μM Tefluthrin (or 50 nM ATX II); read-out: LateINa_1 uM (percent block of late INa).
Assay type: cell-based
Procedure, shortened: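 Late sodium current through wild-type human hNav1.5 stably expressed in HEK293 cells (no beta subunits) was recorded by automated whole-cell patch clamp on a PatchXpress 7000A at 24-27° C. Late INa was induced with 10 μM Tefluthrin or 50 nM ATX II. Cells were stepped from −120 mV to −20 mV for 250 ms at 0.1 Hz, and percent block was normalized to current in Na-free extracellular solution.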

wild-type human cardiac sodium channel, hNav1.5, sequence (Q14524 whole entry): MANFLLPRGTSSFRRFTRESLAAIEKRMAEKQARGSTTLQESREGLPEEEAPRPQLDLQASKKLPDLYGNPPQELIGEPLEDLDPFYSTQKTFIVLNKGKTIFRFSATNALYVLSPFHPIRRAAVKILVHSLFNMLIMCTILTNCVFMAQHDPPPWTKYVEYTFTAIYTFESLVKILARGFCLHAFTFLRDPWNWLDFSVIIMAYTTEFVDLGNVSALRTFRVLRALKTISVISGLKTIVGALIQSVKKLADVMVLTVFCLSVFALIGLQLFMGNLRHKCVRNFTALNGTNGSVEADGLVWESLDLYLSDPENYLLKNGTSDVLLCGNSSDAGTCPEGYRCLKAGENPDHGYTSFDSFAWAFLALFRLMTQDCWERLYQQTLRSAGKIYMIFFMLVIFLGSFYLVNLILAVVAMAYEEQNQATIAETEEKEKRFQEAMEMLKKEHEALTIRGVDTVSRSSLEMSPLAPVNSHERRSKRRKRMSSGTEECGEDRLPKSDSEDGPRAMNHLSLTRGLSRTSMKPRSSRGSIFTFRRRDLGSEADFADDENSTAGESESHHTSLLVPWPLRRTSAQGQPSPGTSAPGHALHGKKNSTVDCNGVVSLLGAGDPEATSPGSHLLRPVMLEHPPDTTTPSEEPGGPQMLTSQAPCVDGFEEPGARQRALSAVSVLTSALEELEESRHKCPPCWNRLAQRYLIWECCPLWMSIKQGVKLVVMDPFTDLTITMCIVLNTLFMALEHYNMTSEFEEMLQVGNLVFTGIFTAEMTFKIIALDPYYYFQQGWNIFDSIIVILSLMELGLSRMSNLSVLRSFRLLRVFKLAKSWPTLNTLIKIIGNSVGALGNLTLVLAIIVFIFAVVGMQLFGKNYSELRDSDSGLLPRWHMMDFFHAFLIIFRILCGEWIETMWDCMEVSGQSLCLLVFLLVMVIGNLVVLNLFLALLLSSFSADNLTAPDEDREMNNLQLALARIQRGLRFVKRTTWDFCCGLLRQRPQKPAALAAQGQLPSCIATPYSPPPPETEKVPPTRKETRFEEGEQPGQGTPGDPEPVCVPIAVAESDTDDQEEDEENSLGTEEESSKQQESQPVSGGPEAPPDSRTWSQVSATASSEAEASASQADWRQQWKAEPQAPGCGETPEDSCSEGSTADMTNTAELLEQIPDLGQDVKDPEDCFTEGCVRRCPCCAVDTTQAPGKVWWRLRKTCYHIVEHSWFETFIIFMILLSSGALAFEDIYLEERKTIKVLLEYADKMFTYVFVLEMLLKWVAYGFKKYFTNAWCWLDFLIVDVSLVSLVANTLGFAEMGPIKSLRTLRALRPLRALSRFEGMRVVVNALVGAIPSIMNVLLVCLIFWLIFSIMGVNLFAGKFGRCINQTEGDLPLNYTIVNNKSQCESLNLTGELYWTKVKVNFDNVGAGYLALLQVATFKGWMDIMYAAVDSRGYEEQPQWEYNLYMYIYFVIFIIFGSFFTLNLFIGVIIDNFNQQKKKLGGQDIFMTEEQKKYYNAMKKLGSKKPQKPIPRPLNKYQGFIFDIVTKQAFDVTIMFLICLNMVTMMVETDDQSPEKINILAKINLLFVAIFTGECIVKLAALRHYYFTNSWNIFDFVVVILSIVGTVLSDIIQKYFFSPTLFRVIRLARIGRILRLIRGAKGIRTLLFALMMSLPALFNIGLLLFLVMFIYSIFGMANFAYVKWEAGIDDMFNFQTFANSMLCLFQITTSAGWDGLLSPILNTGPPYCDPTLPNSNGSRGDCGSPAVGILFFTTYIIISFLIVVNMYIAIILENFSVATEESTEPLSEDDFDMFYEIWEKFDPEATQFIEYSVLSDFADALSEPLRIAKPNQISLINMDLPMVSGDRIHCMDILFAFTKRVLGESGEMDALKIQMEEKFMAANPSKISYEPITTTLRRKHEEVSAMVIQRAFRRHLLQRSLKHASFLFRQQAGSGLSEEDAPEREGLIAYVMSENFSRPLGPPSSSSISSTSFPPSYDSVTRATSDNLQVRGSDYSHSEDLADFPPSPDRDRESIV

Question: Which inhibition at 1 µM does the source give for `FC(F)(F)Oc1ccc(-c2ccc3nnc(-c4ccc(OC(F)(F)F)cc4)n3n2)cc1` [BHN-118, 3,6-bis[4-(trifluoromethoxy)phenyl][1,2,4]triazolo[4,3-b]pyridazine] here?
Answer: Its inhibition at 1 µM is 46.3%.

Question: How did the inhibition at 1 µM turn out when `CC1(C)Cc2cccc(COC(F)(F)c3nnc4ccc(-c5ccc(OC(F)(F)F)cc5)cn34)c2O1` [BHN-321, 3-{[(2,2-dimethyl-2,3-dihydro-1-benzofuran-7-yl)methoxy](difluoro)methyl}-6-[4-(trifluoromethoxy)phenyl][1,2,4]triazolo[4,3-a]pyridine] was run?
Answer: The inhibition at 1 µM was 65.6%.

Question: How did the inhibition at 1 µM turn out when `FC(F)(F)Oc1ccc(-c2ccc3nnc(COCc4ccccc4)n3c2)cc1` [BHN-127, 3-[(benzyloxy)methyl]-6-[4-(trifluoromethoxy)phenyl][1,2,4]triazolo[4,3-a]pyridine] was run?
Answer: Its inhibition at 1 µM is 93.2%.

Question: Which inhibition at 1 µM does the source give for `FC(F)(F)c1ccc(-c2ccc3nnc(C(F)(F)F)n3c2)nn1` [BHN-121, 3-(trifluoromethyl)-6-[6-(trifluoromethyl)pyridazin-3-yl][1,2,4]triazolo[4,3-a]pyridine] here?
Answer: The inhibition at 1 µM was 21.9%.

Question: How did the inhibition at 1 µM turn out when `FC(F)(F)Oc1ccc(-c2ccc3nnc(C(F)(F)F)n3c2)cc1-c1nnco1` [BHN-153, 6-[3-(1,3,4-oxadiazol-2-yl)-4-(trifluoromethoxy)phenyl]-3-(trifluoromethyl)[1,2,4]triazolo[4,3-a]pyridine] was run?
Answer: Its inhibition at 1 µM is 17.2%.

Question: For `FC(F)(F)Oc1ccc(-c2ccc3nnc(C(F)(F)OCc4cccc(-c5ncccn5)c4)n3c2)cc1` [BHN-305, 3-(difluoro{[3-(pyrimidin-2-yl)benzyl]oxy}methyl)-6-[4-(trifluoromethoxy)phenyl][1,2,4]triazolo[4,3-a]pyridine], which inhibition at 1 µM is on record?
Answer: Its inhibition at 1 µM is 59.6%.

Question: For `CC(OCc1ccccn1)c1nnc2ccc(-c3ccc(OC(F)(F)F)cc3)cn12` (stereo not shown) [BHN-255, 3-[1-(pyridin-2-ylmethoxy)ethyl]-6-[4-(trifluoromethoxy)phenyl][1,2,4]triazolo[4,3-a]pyridine], which inhibition at 1 µM is on record?
Answer: The inhibition at 1 µM was 22.8%.

Question: `FC(F)(F)Oc1ccc(-c2ccc3nnc(C(F)(F)OCc4ncccn4)n3c2)cc1` [BHN-245, 3-[difluoro(pyrimidin-2-ylmethoxy)methyl]-6-[4-(trifluoromethoxy)phenyl][1,2,4]triazolo[4,3-a]pyridine] was tested. Which inhibition at 1 µM did it give?
Answer: The inhibition at 1 µM was 38.8%.

Question: How did the inhibition at 1 µM turn out when `FC(F)c1nnc2ccc(-c3ccc(OC(F)(F)F)cc3)nn12` [BHN-12, 3-(difluoromethyl)-6-[4-(trifluoromethoxy)phenyl][1,2,4]triazolo[4,3-b]pyridazine] was run?
Answer: Its inhibition at 1 µM is 39.6%.

Question: For `CC1(COC(F)(F)c2nnc3ccc(-c4ccc(OC(F)(F)F)cc4)cn23)COC1` [BHN-142, 3-{difluoro[(3-methyloxetan-3-yl)methoxy]methyl}-6-[4-(trifluoromethoxy)phenyl][1,2,4]triazolo[4,3-a]pyridine], which inhibition at 1 µM is on record?
Answer: Its inhibition at 1 µM is 38.8%.

Question: Which inhibition at 1 µM does the source give for `CC(OCc1nnc2ccc(-c3ccc(OC(F)(F)F)cc3)cn12)c1ccccc1` (stereo not shown) [BHN-246, 3-[(1-phenylethoxy)methyl]-6-[4-(trifluoromethoxy)phenyl][1,2,4]triazolo[4,3-a]pyridine] here?
Answer: The inhibition at 1 µM was 85.8%.

Question: With `FC(F)(F)c1nnc2ccc(-c3ccc(Oc4cccnc4)cc3)cn12` [BHN-100, 6-[4-(pyridin-3-yloxy)phenyl]-3-(trifluoromethyl)[1,2,4]triazolo[4,3-a]pyridine] as the molecule, how does the inhibition at 1 µM read?
Answer: Its inhibition at 1 µM is 27.6%.

Question: `CNC(=O)c1cc(-c2ccc3nnc(C(F)(F)F)n3c2)ccc1OC(F)(F)F` [BHN-174, N-methyl-2-(trifluoromethoxy)-5-[3-(trifluoromethyl)[1,2,4]triazolo[4,3-a]pyridin-6-yl]benzamide] was tested. Which inhibition at 1 µM did it give?
Answer: Its inhibition at 1 µM is 16%.

Question: How did the inhibition at 1 µM turn out when `O=[N+]([O-])c1cc(F)ccc1Oc1ccc(-c2ccc3nnc(C(F)(F)F)n3c2)cc1` [BHN-110, 6-[4-(4-fluoro-2-nitrophenoxy)phenyl]-3-(trifluoromethyl)[1,2,4]triazolo[4,3-a]pyridine] was run?
Answer: The inhibition at 1 µM was 18.2%.

Question: For `COc1cc(OC(F)(F)F)ccc1-c1ccc2nnc(C(F)(F)F)n2c1` [BHN-152, 6-[2-methoxy-4-(trifluoromethoxy)phenyl]-3-(trifluoromethyl)[1,2,4]triazolo[4,3-a]pyridine], which inhibition at 1 µM is on record?
Answer: The inhibition at 1 µM was 71.8%.

Question: For `COc1ncc(-c2cc(OC(F)(F)F)ccc2-c2ccc3nnc(C(F)(F)F)n3c2)cn1` [BHN-131, 6-[2-(2-methoxypyrimidin-5-yl)-4-(trifluoromethoxy)phenyl]-3-(trifluoromethyl)[1,2,4]triazolo[4,3-a]pyridine], which inhibition at 1 µM is on record?
Answer: Its inhibition at 1 µM is 18.5%.

Question: With `FC(F)(F)Oc1ccc(-c2ccc3nnc(C(F)(F)OCc4ccnc(N5CCCCC5)c4)n3c2)cc1` [BHN-320, 3-(difluoro{[2-(piperidin-1-yl)pyridin-4-yl]methoxy}methyl)-6-[4-(trifluoromethoxy)phenyl][1,2,4]triazolo[4,3-a]pyridine] as the molecule, how does the inhibition at 1 µM read?
Answer: Its inhibition at 1 µM is 76.3%.

Question: With `FC(F)(F)c1nnc2ccc(-c3ccc(C4CC4)cc3)cn12` [BHN-90, 6-(4-cyclopropylphenyl)-3-(trifluoromethyl)[1,2,4]triazolo[4,3-a]pyridine] as the molecule, how does the inhibition at 1 µM read?
Answer: Its inhibition at 1 µM is 63.4%.

Question: For `Clc1ccc(Oc2ccc(-c3ccc4nnnn4c3)cc2)cc1` [BHN-218, 6-[4-(4-chlorophenoxy)phenyl]tetrazolo[1,5-a]pyridine], which inhibition at 1 µM is on record?
Answer: Its inhibition at 1 µM is 36%.

Question: Which inhibition at 1 µM does the source give for `FC(F)(F)Oc1ccc(-c2ccc3nnc(C(F)(F)COCc4cc(-c5ccc(Cl)cc5)no4)n3c2)cc1` [BHN-235, 3-(2-{[3-(4-chlorophenyl)-1,2-oxazol-5-yl]methoxy}-1,1-difluoroethyl)-6-[4-(trifluoromethoxy)phenyl][1,2,4]triazolo[4,3-a]pyridine] here?
Answer: Its inhibition at 1 µM is 41.5%.

Question: `Fc1ccc(Nc2ccc(-c3ccc4nnc(C(F)(F)F)n4c3)cc2)cc1` [BHN-284, 4-fluoro-N-{4-[3-(trifluoromethyl)[1,2,4]triazolo[4,3-a]pyridin-6-yl]phenyl}aniline] was tested. Which inhibition at 1 µM did it give?
Answer: Its inhibition at 1 µM is 31.4%.

Question: `FC(F)(F)Cc1nnc2ccc(-c3ccc(Oc4ccccc4)cc3)nn12` [BHN-31, 6-(4-phenoxyphenyl)-3-(2,2,2-trifluoroethyl)[1,2,4]triazolo[4,3-b]pyridazine] was tested. Which inhibition at 1 µM did it give?
Answer: Its inhibition at 1 µM is 57.5%.

Question: With `CC(OC(F)(F)c1nnc2ccc(-c3ccc(OC(F)(F)F)cc3)cn12)c1ccc(F)cc1` (stereo not shown) [BHN-217, 3-{difluoro[1-(4-fluorophenyl)ethoxy]methyl}-6-[4-(trifluoromethoxy)phenyl][1,2,4]triazolo[4,3-a]pyridine] as the molecule, how does the inhibition at 1 µM read?
Answer: The inhibition at 1 µM was 16.8%.

Question: Which inhibition at 1 µM does the source give for `FC(F)(F)c1nnc2ccc(-c3cccc(Oc4ccccc4)c3)cn12` [BHN-9, 6-(3-phenoxyphenyl)-3-(trifluoromethyl)[1,2,4]triazolo[4,3-a]pyridine] here?
Answer: The inhibition at 1 µM was 29.6%.

Question: Which inhibition at 1 µM does the source give for `FC(F)(F)Oc1ccc(-c2ccc3nnc(C(F)(F)OCc4cc(-c5ccccc5)on4)n3c2)cc1` [BHN-298, 3-{difluoro[(5-phenyl-1,2-oxazol-3-yl)methoxy]methyl}-6-[4-(trifluoromethoxy)phenyl][1,2,4]triazolo[4,3-a]pyridine] here?
Answer: The inhibition at 1 µM was 70.3%.

Question: Which inhibition at 1 µM does the source give for `Cc1cc(COC(F)(F)c2nnc3ccc(-c4ccc(OC(F)(F)F)cc4)cn23)nn1-c1ccc(Cl)cc1` [BHN-302, 3-[{[1-(4-chlorophenyl)-5-methyl-1H-pyrazol-3-yl]methoxy}(difluoro)methyl]-6-[4-(trifluoromethoxy)phenyl][1,2,4]triazolo[4,3-a]pyridine] here?
Answer: The inhibition at 1 µM was 52.8%.

Question: Which inhibition at 1 µM does the source give for `FC(F)(F)Oc1ccc(-c2ccc3nnc(C(F)(F)F)n3c2)c2ncccc12` [BHN-161, 5-(trifluoromethoxy)-8-[3-(trifluoromethyl)[1,2,4]triazolo[4,3-a]pyridin-6-yl]quinoline] here?
Answer: Its inhibition at 1 µM is 49.5%.

Question: For `Fc1cc(-c2ccc3nnc(C(F)(F)F)n3c2)cc(F)c1Oc1ccccc1` [BHN-109, 6-(3,5-difluoro-4-phenoxyphenyl)-3-(trifluoromethyl)[1,2,4]triazolo[4,3-a]pyridine], which inhibition at 1 µM is on record?
Answer: The inhibition at 1 µM was 61.8%.

Question: With `Cc1nn(-c2ccccc2)nc1COC(F)(F)c1nnc2ccc(-c3ccc(OC(F)(F)F)cc3)cn12` [BHN-300, 3-{difluoro[(5-methyl-2-phenyl-2H-1,2,3-triazol-4-yl)methoxy]methyl}-6-[4-(trifluoromethoxy)phenyl][1,2,4]triazolo[4,3-a]pyridine] as the molecule, how does the inhibition at 1 µM read?
Answer: Its inhibition at 1 µM is 63%.

Question: `Fc1ccccc1COCc1nnc2ccc(-c3ccc(OC(F)(F)F)cc3)cn12` [BHN-238, 3-{[(2-fluorobenzyl)oxy]methyl}-6-[4-(trifluoromethoxy)phenyl][1,2,4]triazolo[4,3-a]pyridine] was tested. Which inhibition at 1 µM did it give?
Answer: The inhibition at 1 µM was 80.6%.

Same assay, conditions: compound at 10 μM; HEK293 cells expressing hNav1.5; late INa generated with 10 μM Tefluthrin (or 50 nM ATX II); read-out: LateINa_10 uM (percent block of late INa)

Question: With `Cc1c(-c2ccc(C(F)(F)F)cc2)ccc2ncnn12` [BHN-350, 5-methyl-6-[4-(trifluoromethyl)phenyl][1,2,4]triazolo[1,5-a]pyridine] as the molecule, how does the inhibition at 10 µM read?
Answer: Its inhibition at 10 µM is 44.5%.

Question: With `FC(F)c1nnc2ccc(-c3ccc(OC(F)(F)F)cc3)nn12` [BHN-12, 3-(difluoromethyl)-6-[4-(trifluoromethoxy)phenyl][1,2,4]triazolo[4,3-b]pyridazine] as the molecule, how does the inhibition at 10 µM read?
Answer: The inhibition at 10 µM was 79.7%.

Question: `O=C(O)Cc1nnc2ccc(-c3ccc(OC(F)(F)F)cc3)cn12` [BHN-19, {6-[4-(trifluoromethoxy)phenyl][1,2,4]triazolo[4,3-a]pyridin-3-yl}acetic acid] was tested. Which inhibition at 10 µM did it give?
Answer: The inhibition at 10 µM was 35.4%.

Question: With `Cn1cc(-c2nnc3ccc(-c4ccc(OC(F)(F)F)cc4)cn23)cn1` [BHN-82, 3-(1-methyl-1H-pyrazol-4-yl)-6-[4-(trifluoromethoxy)phenyl][1,2,4]triazolo[4,3-a]pyridine] as the molecule, how does the inhibition at 10 µM read?
Answer: Its inhibition at 10 µM is 38.9%.

Question: Which inhibition at 10 µM does the source give for `CN(C)Cc1cc(-c2ccc3nnc(C(F)(F)F)n3c2)ccc1OC(F)(F)F` [BHN-83, N,N-dimethyl-1-{2-(trifluoromethoxy)-5-[3-(trifluoromethyl)[1,2,4]triazolo[4,3-a]pyridin-6-yl]phenyl}methanamine] here?
Answer: The inhibition at 10 µM was 29.8%.

Question: With `FC(F)(F)c1nnc2ccc(-c3ccc(C4CC4)cc3)cn12` [BHN-90, 6-(4-cyclopropylphenyl)-3-(trifluoromethyl)[1,2,4]triazolo[4,3-a]pyridine] as the molecule, how does the inhibition at 10 µM read?
Answer: The inhibition at 10 µM was 74.9%.

Question: How did the inhibition at 10 µM turn out when `FC(F)(F)Cc1nnc2ccc(-c3ccc(Oc4ccccc4)cc3)nn12` [BHN-31, 6-(4-phenoxyphenyl)-3-(2,2,2-trifluoroethyl)[1,2,4]triazolo[4,3-b]pyridazine] was run?
Answer: The inhibition at 10 µM was 82.6%.

Question: For `FC(F)(F)Oc1ccc(-c2ccc3c(-c4ccccc4)nc(C(F)(F)F)n3c2)cc1` [BHN-34, 1-phenyl-6-[4-(trifluoromethoxy)phenyl]-3-(trifluoromethyl)imidazo[1,5-a]pyridine], which inhibition at 10 µM is on record?
Answer: The inhibition at 10 µM was 33.4%.

Question: With `FC(F)(F)c1nnc2ccc(-c3cccc(Oc4ccccc4)c3)cn12` [BHN-9, 6-(3-phenoxyphenyl)-3-(trifluoromethyl)[1,2,4]triazolo[4,3-a]pyridine] as the molecule, how does the inhibition at 10 µM read?
Answer: The inhibition at 10 µM was 75.7%.

Question: For `Cc1cc2nnc(C(F)(F)F)n2cc1-c1cccc(OC(F)(F)F)c1` [BHN-17, 7-methyl-6-[3-(trifluoromethoxy)phenyl]-3-(trifluoromethyl)[1,2,4]triazolo[4,3-a]pyridine], which inhibition at 10 µM is on record?
Answer: Its inhibition at 10 µM is 25.3%.
